From ChEMBL document CHEMBL1201862, “PubChem BioAssay data set” (2004)
Active and inactive are the calls of the source.

Legend:
[1] = molecular target: Potassium voltage-gated channel subfamily KQT member 2 (Rattus norvegicus, UniProt O88943); test: blockers of KCNQ2 channel current – cell-based, automated electrophysiology, set II, rat KCNQ2, dose response (AID 588637); type: functional
[2] = NIH3T3 cell viability loss – ATP luminescence, mouse fibroblasts, counter-screen, dose response (AID 2010); type: functional, cell-based;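 also: cells exposed to compound for about 90 hours before reading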
[3] = Luminescence Cell-Based Dose Response HTS to Identify Inhibitors of 5'UTR Stem-Loop Driven Prion Protein mRNA Translation in H4 Neuroglioblastoma Cells. [Related pubchem assays: 1827 (Project Summary), 1813 (Primary HTS)]; type: functional
[4] = Trypanosoma cruzi growth suppression in host cells – NIH3T3 host cells, beta-gal luminescence, confirmation (AID 2044); type: functional, cell-based;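 also: intracellular parasites grown in NIH/3T3 mouse fibroblasts as host cells; luminescent beta-galactosidase reporter signal from transgenic T. cruzi replicating inside host cells; inhibitors lower the luminescence signal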
[5] = luciferase reporter signal suppression in cells – H4 neuroglioma cells, luminescence, dose response (AID 1990); type: functional, cell-based
[6] = molecular target: ATP-dependent molecular chaperone HSP82 (Candida albicans (strain WO-1) (Yeast), UniProt C4YTQ8); test: steroid-induced GRE reporter decrease in yeast – S. cerevisiae, luminescence, Hsp90 inhibitor project, dose response (AID 2400); type: functional, cell-based;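 also: beta-galactosidase luminescence from glucocorticoid response element reporter as proxy for Hsp90 function; inhibitor potency where signal loss means Hsp90 inhibition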
INS1 = test: INS-1E survival protection against cytokine death – cell-based, luminescence, retest, dose response (AID 449756); type: functional; conditions: Rattus norvegicus;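 also: cell death triggered by IL-1 beta plus TNF-alpha plus IFN-gamma mixture; protective hits raise ATP signal compared with cytokine alone wells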
[7] = fluconazole-exposed Candida albicans growth modulators – fluorescence, retest, confirmation (AID 2467); type: functional, cell-based
[8] = alpha-synuclein stem-loop luciferase translation blockers – H4 neuroglioma cells, luminescence, confirmation (AID 1988); type: functional, cell-based
[9] = molecular target: T1, Serine/threonine-protein phosphatase (Candida dubliniensis (strain CD36 / CBS 7987 / NCPF 3949 / NRRLY-17841) (Yeast), UniProt B9W6M3); test: blockers of CaCl2-induced CDRE-lacZ signaling – S. cerevisiae, luminescence, secondary, dose response (AID 2388); type: functional, cell-based;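 also: yeast reporter cells carrying a calcineurin-responsive lacZ construct stimulated with calcium chloride; luminescent beta-galactosidase reporter signal in whole cells rather than isolated phosphatase activity; potency for inhibition where a drop in reporter signal means calcineurin blockade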
T1 sequence (B9W6M3 whole entry): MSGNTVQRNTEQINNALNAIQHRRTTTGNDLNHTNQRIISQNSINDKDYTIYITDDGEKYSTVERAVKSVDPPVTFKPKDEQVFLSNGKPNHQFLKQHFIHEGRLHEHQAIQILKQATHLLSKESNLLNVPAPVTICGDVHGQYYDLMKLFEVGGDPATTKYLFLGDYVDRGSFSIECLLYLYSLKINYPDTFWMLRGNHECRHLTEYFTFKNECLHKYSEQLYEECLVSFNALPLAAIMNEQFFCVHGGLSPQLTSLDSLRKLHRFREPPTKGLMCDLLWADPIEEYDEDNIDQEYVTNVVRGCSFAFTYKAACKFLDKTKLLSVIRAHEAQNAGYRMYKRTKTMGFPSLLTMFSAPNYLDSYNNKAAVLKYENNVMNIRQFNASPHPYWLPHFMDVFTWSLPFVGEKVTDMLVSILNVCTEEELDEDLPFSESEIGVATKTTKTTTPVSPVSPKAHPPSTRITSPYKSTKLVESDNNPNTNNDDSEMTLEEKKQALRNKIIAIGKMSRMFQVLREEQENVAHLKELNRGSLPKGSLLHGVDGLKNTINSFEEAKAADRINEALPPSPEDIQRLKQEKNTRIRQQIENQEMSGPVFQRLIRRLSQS

[10] = NIH-3T3 fibroblast cytotoxicity, dose response, cytotoxicity control, cell-based, fluorescence, Alamar Blue, secondary assay (AID 2327); type: functional;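 also: NIH-3T3 mouse fibroblasts cultured with fluconazole at 8 µg/mL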
Leucine aminopeptidase = molecular target: T2, Leucine aminopeptidase (Plasmodium falciparum 3D7, UniProt Q8IL11); test: P. falciparum M17LAP inhibitors, primary screen, biochemical, fluorogenic H-Leu-NHMec substrate, 1536-well (AID 1619); type: functional
T2 sequence (Q8IL11 whole entry): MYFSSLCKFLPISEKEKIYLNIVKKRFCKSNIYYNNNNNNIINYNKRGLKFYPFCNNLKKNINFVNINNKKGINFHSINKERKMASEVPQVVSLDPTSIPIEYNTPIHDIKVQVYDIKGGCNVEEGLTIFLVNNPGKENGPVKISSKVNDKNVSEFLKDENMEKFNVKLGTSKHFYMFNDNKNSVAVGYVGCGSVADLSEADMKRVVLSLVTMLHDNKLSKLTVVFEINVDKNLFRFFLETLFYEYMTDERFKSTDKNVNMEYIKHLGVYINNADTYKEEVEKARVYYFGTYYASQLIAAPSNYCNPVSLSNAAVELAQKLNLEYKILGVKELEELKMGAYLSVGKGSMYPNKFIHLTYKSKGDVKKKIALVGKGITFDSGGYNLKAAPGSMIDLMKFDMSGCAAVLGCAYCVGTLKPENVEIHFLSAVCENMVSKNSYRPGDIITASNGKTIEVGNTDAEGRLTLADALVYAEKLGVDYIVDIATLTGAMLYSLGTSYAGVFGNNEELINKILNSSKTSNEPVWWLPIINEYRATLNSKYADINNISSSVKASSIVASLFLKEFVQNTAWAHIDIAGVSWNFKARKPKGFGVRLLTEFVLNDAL

[11] = inhibition of ARNT PAS-B/TACC3 complex formation – biochemical, AlphaScreen, cherry-picked samples, confirmation (AID 651703); type: functional, Homo sapiens;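 also: His-tagged ARNT PAS-B domain paired with GST-TACC3 E629A dimer coactivator fragment; potency of inhibitors that break up the complex and lower AlphaScreen signal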
[12] = molecular target: T3, ATP-dependent translocase ABCB1 (Homo sapiens, UniProt P08183); test: inhibition of BCRP-mediated JC-1 efflux – Ig-MXP3 cells, flow cytometry, set 2, dose response (AID 504566); type: functional; conditions: read-out: EC50_MICROM_;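 also: flow cytometry median green fluorescence of retained JC-1 dye; potency of efflux pump inhibition measured as rising substrate retention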
T3 sequence (P08183 whole entry): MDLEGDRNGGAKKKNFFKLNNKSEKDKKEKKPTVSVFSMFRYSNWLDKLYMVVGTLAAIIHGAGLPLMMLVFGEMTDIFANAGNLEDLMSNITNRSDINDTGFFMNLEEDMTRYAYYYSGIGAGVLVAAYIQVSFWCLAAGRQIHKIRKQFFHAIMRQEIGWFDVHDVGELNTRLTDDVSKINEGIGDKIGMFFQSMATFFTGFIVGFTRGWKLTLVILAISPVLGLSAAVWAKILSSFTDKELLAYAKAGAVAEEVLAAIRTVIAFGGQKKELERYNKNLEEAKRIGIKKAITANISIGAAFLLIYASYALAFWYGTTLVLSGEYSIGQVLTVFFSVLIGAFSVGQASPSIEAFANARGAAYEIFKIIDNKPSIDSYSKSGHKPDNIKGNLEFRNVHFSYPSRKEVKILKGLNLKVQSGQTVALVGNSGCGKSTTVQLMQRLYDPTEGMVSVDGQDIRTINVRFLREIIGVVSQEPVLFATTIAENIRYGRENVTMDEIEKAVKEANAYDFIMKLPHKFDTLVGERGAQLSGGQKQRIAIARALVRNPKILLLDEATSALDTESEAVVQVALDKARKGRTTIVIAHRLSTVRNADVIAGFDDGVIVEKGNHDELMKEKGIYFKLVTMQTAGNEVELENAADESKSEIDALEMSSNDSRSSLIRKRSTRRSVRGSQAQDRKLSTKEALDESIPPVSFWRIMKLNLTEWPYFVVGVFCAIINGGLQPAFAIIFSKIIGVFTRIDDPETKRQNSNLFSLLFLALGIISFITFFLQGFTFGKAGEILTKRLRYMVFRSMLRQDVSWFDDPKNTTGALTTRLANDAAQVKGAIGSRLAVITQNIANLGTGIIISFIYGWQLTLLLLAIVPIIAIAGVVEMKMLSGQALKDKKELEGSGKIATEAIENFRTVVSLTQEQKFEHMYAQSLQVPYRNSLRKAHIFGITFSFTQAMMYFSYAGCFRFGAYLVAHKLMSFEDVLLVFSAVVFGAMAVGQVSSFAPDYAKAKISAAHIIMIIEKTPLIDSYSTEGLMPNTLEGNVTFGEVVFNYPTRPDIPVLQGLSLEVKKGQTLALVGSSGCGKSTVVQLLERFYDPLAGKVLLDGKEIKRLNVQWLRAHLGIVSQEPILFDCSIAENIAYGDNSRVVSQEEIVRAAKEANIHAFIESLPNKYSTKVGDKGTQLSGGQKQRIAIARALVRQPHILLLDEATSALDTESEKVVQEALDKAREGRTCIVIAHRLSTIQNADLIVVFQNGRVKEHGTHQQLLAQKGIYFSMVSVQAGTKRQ

[13] = molecular target: T3, ATP-dependent translocase ABCB1; test: P-gp JC-1 efflux blockade concentration-response – Jurkat-DNR cells, flow cytometry, set 2, dose response (AID 504569); type: functional; conditions: read-out: EC50_MICROM_;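 also: potency of pump inhibitors that raise cellular JC-1 green fluorescence up to the nicardipine level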
[14] = molecular target: Ras and Rab interactor 1/Tyrosine-protein kinase ABL1 (Homo sapiens, UniProt P00519+Q13671); type: functional;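 also: biochemical TR-FRET dose-response test measuring inhibition of binding between Rin1 and Abl proteins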
Sequence of Ras and Rab interactor 1/Tyrosine-protein kinase ABL1 (P00519 whole entry): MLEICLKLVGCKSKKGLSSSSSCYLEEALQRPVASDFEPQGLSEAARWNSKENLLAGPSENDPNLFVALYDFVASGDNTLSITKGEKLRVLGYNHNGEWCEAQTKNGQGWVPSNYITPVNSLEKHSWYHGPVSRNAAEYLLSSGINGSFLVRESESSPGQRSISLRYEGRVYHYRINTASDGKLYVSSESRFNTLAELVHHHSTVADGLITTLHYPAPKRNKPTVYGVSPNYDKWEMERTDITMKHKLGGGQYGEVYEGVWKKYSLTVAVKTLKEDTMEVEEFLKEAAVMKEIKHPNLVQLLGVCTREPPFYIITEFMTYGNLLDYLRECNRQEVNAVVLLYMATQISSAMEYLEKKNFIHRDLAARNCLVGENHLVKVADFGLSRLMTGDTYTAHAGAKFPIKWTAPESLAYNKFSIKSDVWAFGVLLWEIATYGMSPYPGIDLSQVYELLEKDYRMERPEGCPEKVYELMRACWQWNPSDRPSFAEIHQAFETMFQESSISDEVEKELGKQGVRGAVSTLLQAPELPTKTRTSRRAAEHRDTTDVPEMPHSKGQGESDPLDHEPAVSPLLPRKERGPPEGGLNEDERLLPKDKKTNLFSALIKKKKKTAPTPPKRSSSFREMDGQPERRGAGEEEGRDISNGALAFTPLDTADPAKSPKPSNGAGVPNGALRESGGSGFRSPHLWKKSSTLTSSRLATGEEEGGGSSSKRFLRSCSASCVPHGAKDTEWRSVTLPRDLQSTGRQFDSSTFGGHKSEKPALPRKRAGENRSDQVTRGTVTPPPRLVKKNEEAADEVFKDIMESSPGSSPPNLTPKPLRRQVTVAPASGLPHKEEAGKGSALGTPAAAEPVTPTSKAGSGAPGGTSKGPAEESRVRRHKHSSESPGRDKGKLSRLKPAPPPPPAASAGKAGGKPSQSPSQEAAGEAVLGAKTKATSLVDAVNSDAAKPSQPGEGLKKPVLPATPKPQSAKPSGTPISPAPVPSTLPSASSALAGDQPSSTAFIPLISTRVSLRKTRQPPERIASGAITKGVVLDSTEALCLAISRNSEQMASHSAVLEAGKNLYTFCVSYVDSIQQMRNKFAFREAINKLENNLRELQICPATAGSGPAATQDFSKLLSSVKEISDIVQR
Sequence of Ras and Rab interactor 1/Tyrosine-protein kinase ABL1 (Q13671 whole entry): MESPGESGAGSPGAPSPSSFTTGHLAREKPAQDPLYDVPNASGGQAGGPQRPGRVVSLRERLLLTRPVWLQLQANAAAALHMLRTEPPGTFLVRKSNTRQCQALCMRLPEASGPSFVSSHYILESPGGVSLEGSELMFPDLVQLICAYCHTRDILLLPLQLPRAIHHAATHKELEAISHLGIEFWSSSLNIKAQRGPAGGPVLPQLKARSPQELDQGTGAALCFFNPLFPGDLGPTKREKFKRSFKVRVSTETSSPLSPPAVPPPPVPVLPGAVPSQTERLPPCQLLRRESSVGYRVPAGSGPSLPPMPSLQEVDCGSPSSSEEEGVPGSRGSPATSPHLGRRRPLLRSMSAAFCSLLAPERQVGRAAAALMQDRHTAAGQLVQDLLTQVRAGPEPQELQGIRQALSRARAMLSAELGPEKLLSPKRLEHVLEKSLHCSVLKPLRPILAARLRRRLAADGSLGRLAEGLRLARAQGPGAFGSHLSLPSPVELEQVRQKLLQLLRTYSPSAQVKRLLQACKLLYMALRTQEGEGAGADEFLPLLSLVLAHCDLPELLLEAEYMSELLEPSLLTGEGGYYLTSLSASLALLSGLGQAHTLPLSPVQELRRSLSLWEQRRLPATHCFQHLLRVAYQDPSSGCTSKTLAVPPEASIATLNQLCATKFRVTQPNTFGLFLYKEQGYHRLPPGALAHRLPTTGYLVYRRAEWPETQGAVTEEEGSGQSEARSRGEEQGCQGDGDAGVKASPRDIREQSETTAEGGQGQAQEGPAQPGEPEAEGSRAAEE

[15] = molecular target: T4, High affinity choline transporter 1 (Homo sapiens, UniProt Q9GZV3); test: human choline transporter blockers, potency – cell-based, 10-point CRC, membrane potential dye, dose response (AID 588401); type: functional;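 also: membrane potential dye fluorescence of choline-evoked depolarization via CHT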
T4 sequence (Q9GZV3 whole entry): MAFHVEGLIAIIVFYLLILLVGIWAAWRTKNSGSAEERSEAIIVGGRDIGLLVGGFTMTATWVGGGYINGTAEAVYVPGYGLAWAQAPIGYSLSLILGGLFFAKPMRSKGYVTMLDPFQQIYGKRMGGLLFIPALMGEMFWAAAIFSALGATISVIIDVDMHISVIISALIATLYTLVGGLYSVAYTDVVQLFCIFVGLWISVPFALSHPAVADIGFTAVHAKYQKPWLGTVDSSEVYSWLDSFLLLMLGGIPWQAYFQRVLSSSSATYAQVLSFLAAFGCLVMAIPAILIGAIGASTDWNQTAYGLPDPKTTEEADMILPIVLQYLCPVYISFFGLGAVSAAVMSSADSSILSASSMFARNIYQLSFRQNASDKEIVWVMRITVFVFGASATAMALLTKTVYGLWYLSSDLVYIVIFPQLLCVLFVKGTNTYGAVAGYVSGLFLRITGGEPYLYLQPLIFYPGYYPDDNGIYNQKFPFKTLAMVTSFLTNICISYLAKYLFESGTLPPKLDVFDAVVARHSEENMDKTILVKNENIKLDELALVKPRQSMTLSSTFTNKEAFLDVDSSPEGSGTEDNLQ

[16] = molecular target: T4, High affinity choline transporter 1; test: human choline transporter blockers, potency – cell-based, 5-point CRC, membrane potential dye, dose response (AID 504840); type: functional
[17] = A cytotoxicity screen of small molecule inhibitors of the PhoP region in Salmonella typhi identified in the primary screen. [Related pubchem assays: 1850, 1864, 1985 ]; type: functional
[18] = molecular target: T5, Probable nicotinate-nucleotide adenylyltransferase (Staphylococcus aureus (strain N315), UniProt P65502); type: functional, Staphylococcus aureus subsp. aureus N315; conditions: read-out: IC50_Mean;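 as to IC50 Mean: confirmatory dose-response retesting of NadD inhibitor hits first found in an ultra-high-throughput screen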
T5 sequence (P65502 whole entry): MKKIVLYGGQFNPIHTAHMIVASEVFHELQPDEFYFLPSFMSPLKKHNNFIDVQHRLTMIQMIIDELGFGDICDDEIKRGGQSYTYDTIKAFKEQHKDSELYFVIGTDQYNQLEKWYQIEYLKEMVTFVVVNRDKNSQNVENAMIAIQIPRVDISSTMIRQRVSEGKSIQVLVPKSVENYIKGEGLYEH

[19] = molecular target: T5, Probable nicotinate-nucleotide adenylyltransferase; type: functional, Staphylococcus aureus subsp. aureus N315
cells [20] = type: functional, cell-based
cells [21] = type: functional, cell-based; remark: listed apart in the source
[22] = molecular target: Photoreceptor-specific nuclear receptor (Homo sapiens, UniProt Q9Y5X4); type: functional, cell-based;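 also: CHO-S cells with Gal4-NCOR and VP16-NR2E3 two-hybrid luciferase reporter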
Sequence of Photoreceptor-specific nuclear receptor (Q9Y5X4 whole entry, the tested form may be a part): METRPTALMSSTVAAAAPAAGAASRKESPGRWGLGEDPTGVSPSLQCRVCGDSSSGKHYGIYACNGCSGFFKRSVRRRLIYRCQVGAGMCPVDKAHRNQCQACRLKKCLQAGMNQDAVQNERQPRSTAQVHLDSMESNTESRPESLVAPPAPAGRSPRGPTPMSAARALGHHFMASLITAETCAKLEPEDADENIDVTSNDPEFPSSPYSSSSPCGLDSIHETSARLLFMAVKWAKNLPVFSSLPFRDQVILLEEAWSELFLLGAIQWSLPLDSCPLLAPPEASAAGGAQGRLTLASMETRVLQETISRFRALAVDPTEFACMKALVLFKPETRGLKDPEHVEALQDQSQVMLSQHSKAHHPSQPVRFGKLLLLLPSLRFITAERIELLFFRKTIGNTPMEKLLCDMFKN

[23] = Luminescence Cell-Based Dose Retest to Confirm Inhibitors of Cancer Stem Cells. [Related pubchem assays (depositor defined):AID2717, AID2721]; type: functional; conditions: Homo sapiens

Sequence of Potassium voltage-gated channel subfamily KQT member 2 (O88943 whole entry): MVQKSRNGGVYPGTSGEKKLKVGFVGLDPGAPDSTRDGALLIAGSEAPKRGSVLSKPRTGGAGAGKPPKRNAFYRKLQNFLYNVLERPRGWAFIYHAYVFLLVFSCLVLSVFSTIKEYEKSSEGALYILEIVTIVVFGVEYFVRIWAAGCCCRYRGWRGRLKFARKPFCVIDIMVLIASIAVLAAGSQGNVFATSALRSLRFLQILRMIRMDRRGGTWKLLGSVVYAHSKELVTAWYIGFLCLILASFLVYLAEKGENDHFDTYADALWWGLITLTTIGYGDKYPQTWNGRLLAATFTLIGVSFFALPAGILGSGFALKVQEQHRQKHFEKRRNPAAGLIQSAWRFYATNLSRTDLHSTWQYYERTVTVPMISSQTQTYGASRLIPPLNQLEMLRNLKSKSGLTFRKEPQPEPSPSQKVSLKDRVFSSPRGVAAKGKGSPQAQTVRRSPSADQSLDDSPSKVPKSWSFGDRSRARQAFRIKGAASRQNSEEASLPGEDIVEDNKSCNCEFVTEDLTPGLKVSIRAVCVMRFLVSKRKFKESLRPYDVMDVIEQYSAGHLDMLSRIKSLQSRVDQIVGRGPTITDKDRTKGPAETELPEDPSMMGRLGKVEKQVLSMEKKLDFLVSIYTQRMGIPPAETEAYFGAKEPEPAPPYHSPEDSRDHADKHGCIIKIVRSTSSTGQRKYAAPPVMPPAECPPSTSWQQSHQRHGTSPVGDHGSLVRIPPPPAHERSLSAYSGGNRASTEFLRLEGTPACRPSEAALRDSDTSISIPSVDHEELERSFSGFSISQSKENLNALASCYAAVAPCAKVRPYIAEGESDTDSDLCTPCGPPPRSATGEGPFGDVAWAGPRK

COC(=O)C(Cc1ccccc1)NCC(=O)Nc1cccc(Cl)c1C (stereo not drawn)
IC50 [1]: 1.57 µM (active)

Cc1ccc(C(=O)O/N=C/c2c(N3CCOCC3)n(C)c3ccccc23)cc1
EC50 [2]: 3.44 µM (active)
EC50 [3]: 10.9 µM (active)
EC50 [4]: 0.799 µM (active)
EC50 [5]: > 120 µM (not active)
EC50 [6]: > 160 µM (inactive)
AC50 (INS1): 0.915 µM (active)
EC50 [7]: 0.419 µM (active)
EC50 [8]: > 120 µM (not active)
EC50 [9]: > 180 µM (inactive)
EC50 [10]: > 160 µM (inconclusive)

O=C(O)COc1ccccc1/C=N/NC(=O)c1cccc(S(=O)(=O)Nc2cccc(Cl)c2)c1
IC50 (Leucine aminopeptidase): 21.3 µM (active)
AC50 [11]: 73.8 µM (active)

O=C(c1ccc(Cl)cc1)N1CCN(c2cc(-c3ccccc3)nc3cc(-c4cccc(Cl)c4)nn23)CC1
EC50 [12]: 1.99 µM (active)
EC50 [13]: 1.74 µM (active)

CSc1ccccc1OCc1cc(C(=O)N2CCNC(=O)C2)no1
IC50 [14]: 6.88 µM (active)

COc1ccc2cc(C(c3nnnn3CCc3ccccc3)N3CCCC(C)C3)c(=O)[nH]c2c1 (stereo not drawn)
IC50 [1]: 2.7 µM (active)

Cc1ccc(CNC(=O)c2ccccc2NS(=O)(=O)c2ccc(Cl)nc2)cc1
IC50 [15]: 4.22 µM (active)
IC50 [16]: 7.31 µM (active)

O=C(c1ccco1)N1CCN(c2cc(-c3ccccc3)nc3cc(-c4ccc(Cl)cc4)nn23)CC1
EC50 [12]: 0.99 µM (active)
EC50 [13]: 2.6 µM (active)

NS(=O)(=O)c1ccc(CNc2ccc3ccccc3n2)cc1
IC50 [15]: 3.57 µM (active)
IC50 [16]: 3.76 µM (active)
EC50 [17]: > 50 µM (active)

Cc1ccc(C(=O)Nc2cccc([N+](=O)[O-])c2)cc1S(=O)(=O)Nc1ccc(NC(=O)c2ccccc2)cc1
IC50 [18]: 61.1 µM (active)
IC50 [19]: 25.9 µM (active)
EC50 (cells [20]): > 350 µM (not active)
EC50 (cells [21]): > 350 µM (not active)

C[C@@H]1CCCCO[C@@H](CN(C)C(=O)Nc2ccc3c(c2)OCO3)[C@@H](C)CN([C@@H](C)CO)C(=O)c2cc(N(C)C)ccc2O1
AC50 [11]: 114 µM (active)

O=C(NC(=O)N1CCN(c2cccc(Cl)c2)CC1)c1ccc(Cl)cc1
IC50 [22]: 3.05 µM (active)
AC50 [23]: 0.263 µM (active)

CCc1nnc(NC(=O)CCc2nc(C3=CCN(C)CC3)no2)s1
IC50 [14]: 3.81 µM (active)

COc1ccc(-n2c(C)cc(C(=O)COC(=O)c3ccc(O)cc3O)c2C)cc1
IC50 [22]: 5.7 µM (active)
